Earlier results on 1 compound are cited in patent publication US20220362242A1, “METHODS AND COMPOSITIONS FOR TREATING MOVEMENT DISORDERS” (Edgewise Therapeutics, Inc., priority 2018, published 2022).

The test system of this data set is embryos from zebrafish model of DMD. To be noted: control vs BTS treated muscles, FIG. 2.

Turning to `Cc1ccc(S(=O)(=O)NCc2ccccc2)cc1` [BTS, N-benzyl-p-tolyl-sulfonamide], the “protection of muscles from pathological muscle derangement” value is listed as “protect muscles from pathological muscle derangement”.
